{
  "source": "paper PMC3356383",
  "about": "“Efficacious Intermittent Dosing of a Novel JAK2 Inhibitor in Mouse Models of Polycythemia Vera” (PLoS ONE, 2012)",
  "key": {"JAK1 (JH1)": {"target": "T1, JAK1 (JH1) (Homo sapiens, UniProt P23458)", "T1 construct": "JAK1 (JH1)", "T1 sequence (P23458 875-1153 limits assumed, species assumed)": "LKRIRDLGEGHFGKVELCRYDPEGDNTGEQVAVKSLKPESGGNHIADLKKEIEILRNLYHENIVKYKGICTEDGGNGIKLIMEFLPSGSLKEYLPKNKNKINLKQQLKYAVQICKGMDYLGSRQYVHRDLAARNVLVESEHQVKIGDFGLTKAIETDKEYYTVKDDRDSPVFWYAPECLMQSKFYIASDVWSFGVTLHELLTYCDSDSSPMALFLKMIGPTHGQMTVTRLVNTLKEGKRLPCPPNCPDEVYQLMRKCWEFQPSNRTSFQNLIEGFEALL", "assay": "JAK1 enzyme assay, HTRF detection", "assay_type": "biochemical", "experimental": "(§1) JAK1, JAK2, JAK3, and TYK2 kinase activity assays were performed as described previously using HTRF detection technology and the peptide substrate amino hexanoyl biotin-EQEDEPEGDYFEWLE-NH2. Each reaction was incubated between 60 and 80 min at room temperature. Final conditions were as follows: JAK1, 400 pM enzyme, Hepes pH 7.5, 10 mM MgCl2, 0.01% Brij-35, 1 mM EGTA, 0.1 mg/ml BSA), 2 mM DTT, 2 µM peptide substrate, 25 µM MgATP, 5% DMSO and the desired concentration of subject compound; JAK2, 25 pM enzyme (JH1, JH1–JH2^wt, JH1–JH2^V617F domains), 2 µM peptide substrate, 15 µM MgATP, 5 mM MgCl2, 100 mM NaCl, 2 mM DTT, 0.1 mg/ml BSA, 50 mM Tris (pH 7.4), 5% DMSO and the desired concentration of subject compound; JAK3, 250 pM enzyme, 50 mM Hepes pH 7.5, 10 mM MgCl2, 0.01% Brij-35, 1 mM EGTA, 0.1 mg/ml BSA), 2 mM DTT, 2.0 µM peptide substrate, 25 µM MgATP, 5% DMSO, and the desired concentration of subject compound; TYK2, 125 pM enzyme, 50 mM Hepes pH 7.5, 10 mM MgCl2, 0.01% Brij-35, 1 mM EGTA, 0.1 mg/ml BSA, 2 mM DTT, 2.0 µM peptide substrate, 15 µM MgATP, 5% DMSO and the desired concentration of subject compound."}, "BaF3 (JAK2 WT) cells": {"tested_on": "BaF3 (JAK2 WT) cells", "assay": "Cell apoptosis, ApoDirect assay", "assay_type": "cell-based", "settings": "Mus musculus, 24 hour, EPO-stimulated, ApoDirect measurement of fragmented DNA, read-out: Cell apoptosis, BaF3 (JAK2 WT) (values shown are EC50)", "experimental": "(§2) Cell survival was measured by ApoDirect (BD Biosciences) assay as follows. BaF3 cells were grown at 37°C, 5% CO2, and aliquots (2 × 10^6) were treated with inhibitor (various concentration dissolved in DMSO) for 24 hours and then fixed and stained as per manufacturer protocol."}, "BaF3 (JAK2 V617F) cells": {"tested_on": "BaF3 (JAK2 V617F) cells", "assay": "Cell apoptosis, ApoDirect assay", "assay_type": "cell-based", "settings": "Mus musculus, 24 hour, ApoDirect measurement of fragmented DNA, read-out: Cell apoptosis, BaF3 (JAK2 V617F) (values shown are EC50)", "experimental": "as §2"}, "spleen cell populations": {"tested_on": "spleen cell populations", "assay": "Cell populations in spleen of normal mice", "assay_type": "in vivo", "settings": "54 mpk; for Spleen B-Cells B220+ / Spleen Cell Count / Spleen Myeloid Gr-1+ CD11b+ / Spleen NK-Cells NK1.1+ NKG2D+ / Spleen T-Cells CD4+ / Spleen T-Cells CD8+ / Spleen T-Cells Tregs CD25+CD127^lo / Spleen Weight / Spleen B-Cells MZ-B-cells CD21^hiCD23^lo: normal mice", "experimental": "Cells were stained in PBS, 0.5% BSA with antibodies for 15 min on ice. Stained cells were acquired on a 4-laser LSR-II (BD Biosciences) and data analyzed using FlowJo software (Treestar). Dead cells were labeled with the blue fluorescent LIVE/DEAD reactive dye (Invitrogen) and excluded from the analysis.\nMonoclonal antibodies (anti-mouse): CD3, CD4, CD5, CD8, CD11b, CD19, CD21/35, CD23, CD25, CD43, CD44, CD49b, CD69, CD71, CD93, CD117, B220, GR-1, IgD, NK1.1, NKG2A/C/E, NKG2D, Ter119 were purchased from BD Biosciences; CD4, CD8, CD49b, CD62L, TCRβ, TCRγδ from eBioscience; GR-1 from Invitrogen; CD43 from Miltenyi Biotec. Goat anti-mouse IgM-FITC, (μ chain specific) from Jackson Immuno Research.\nJAK2 and its family members JAK1 and JAK3 are known to signal downstream of cytokines that play essential roles in the development of lymphoid cell populations. To examine more thoroughly the effects of JAK2 inhibition on lymphoid cells, we analyzed wild-type (C57BL/6) mice treated with 54 mpk MRLB-11055 for 3 days, 6 days or up to 5 cycles of 3 days (“on”) followed by a 4 day holiday (“off”).\nSupplementary file pone.0037207.s004.doc: Table S2 Effect of MRLB-11055 on Cell Populations in Spleen of Normal Mice. Cell counts measured by Advia. Cycles refer to 3 days of treatment followed by a 4 day holiday. *p<0.05 in Student T test when comparing vehicle 5 cycle with treatment 5 cycle and vehicle 2 cycle with treatment 2 cycle, resp. (DOC) Click here for additional data file."}, "TYK2 (JH1)": {"target": "T2, TYK2 (JH1) (Homo sapiens, UniProt P29597)", "T2 construct": "TYK2 (JH1)", "T2 sequence (P29597 897-1176 limits assumed, species assumed)": "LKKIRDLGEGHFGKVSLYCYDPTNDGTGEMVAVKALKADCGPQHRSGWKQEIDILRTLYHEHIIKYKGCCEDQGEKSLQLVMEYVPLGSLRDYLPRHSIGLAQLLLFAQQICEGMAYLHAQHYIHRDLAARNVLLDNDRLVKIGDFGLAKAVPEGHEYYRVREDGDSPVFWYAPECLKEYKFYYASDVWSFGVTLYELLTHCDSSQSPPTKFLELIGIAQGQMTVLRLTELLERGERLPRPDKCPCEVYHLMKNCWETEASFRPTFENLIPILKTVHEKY", "assay": "TYK2 enzyme assay, HTRF detection", "assay_type": "biochemical", "experimental": "as §1"}, "PRK2": {"tested_on": "PRK2", "assay": "Kinase profiling (Millipore)", "assay_type": "biochemical", "settings": "IC50s measured at ATP Km, fold increase relative to JAK2", "experimental": "Kinase profiling was conducted by Millipore (Billerica, MA).\nSupplementary file pone.0037207.s003.doc: Table S1 Recombinant Kinase Selectivity Profile of MRLB-11055. IC50s measured at ATP Km, and fold increase relative to JAK2 is reported. (DOC) Click here for additional data file."}, "[1]": {"settings": "6 days of continuous treatment, wild-type C57BL/6 mice"}, "[2]": {"settings": "2 cycles (3 days treatment, 4 day holiday)"}, "[3]": {"settings": "5 cycles (3 days treatment, 4 day holiday)"}},
  "note": "Marks after values point to notes of the source that are not given here.",
  "data": [
    {"smiles": "NC(=O)c1cnc(N[C@H](C2CC2)C(F)(F)F)c2c1[nH]c1cc(-c3cnc(N)nc3)ccc12", "note": "[MRLB-11055]", "values": [
      {"measurement": "IC50", "setting": "JAK1 (JH1); HTRF, mean, n = 3, read-out: IC50, cell-free JAK1 (JH1)", "result": 1.5, "unit": "nM"},
      {"measurement": "Selectivity for JAK2 over JAK1", "setting": "JAK1 (JH1); cell-free assays", "result": 20, "unit": "fold"},
      {"measurement": "EC50", "setting": "BaF3 (JAK2 WT) cells", "result": 260, "unit": "nM"},
      {"measurement": "EC50", "setting": "BaF3 (JAK2 V617F) cells", "result": 135, "unit": "nM"},
      {"measurement": "Decrease of splenic B220+ B-cells", "setting": "spleen cell populations; [1]", "result": 2, "unit": "fold"},
      {"measurement": "Decrease of splenic NK1.1+ cells", "setting": "spleen cell populations; [1]", "result": 25, "unit": "fold"},
      {"measurement": "Reduction of any of the splenic lymphocytes tested", "setting": "spleen cell populations; intermittent dosing, 5 cycles of 3 days on and 4 days off", "result": "≤ 2", "unit": "fold"},
      {"measurement": "Spleen B-Cells B220+", "setting": "spleen cell populations; [2]", "result": "30.9 ± 2.2 X10^6"},
      {"measurement": "Spleen Cell Count", "setting": "spleen cell populations; [2]", "result": "53.2 ± 1.2 X10^6"},
      {"measurement": "Spleen Myeloid Gr-1+ CD11b+", "setting": "spleen cell populations; [2]", "result": "0.67 ± 0.17 X10^6"},
      {"measurement": "Spleen NK-Cells NK1.1+ NKG2D+", "setting": "spleen cell populations; [2]", "result": "1.2 ± 0.2* X10^6"},
      {"measurement": "Spleen T-Cells CD4+", "setting": "spleen cell populations; [2]", "result": "6.5 ± 1.0* X10^6"},
      {"measurement": "Spleen T-Cells CD8+", "setting": "spleen cell populations; [2]", "result": "4.0 ± 0.4* X10^6"},
      {"measurement": "Spleen T-Cells Tregs CD25+CD127^lo", "setting": "spleen cell populations; [2]", "result": "0.4 ± 0.1 * X10^6"},
      {"measurement": "Spleen Weight", "setting": "spleen cell populations; [2]", "result": "76.3 ± 4.7", "unit": "mg"},
      {"measurement": "Spleen B-Cells B220+", "setting": "spleen cell populations; [3]", "result": "31.2 ± 6.9 X10^6"},
      {"measurement": "Spleen B-Cells MZ-B-cells CD21^hiCD23^lo", "setting": "spleen cell populations; [3]", "result": "1.7 ± 0.4* X10^6"},
      {"measurement": "Spleen Cell Count", "setting": "spleen cell populations; [3]", "result": "59.4 ± 20.3 X10^6"},
      {"measurement": "Spleen Myeloid Gr-1+ CD11b+", "setting": "spleen cell populations; [3]", "result": "1.05 ± 0.76 X10^6"},
      {"measurement": "Spleen NK-Cells NK1.1+ NKG2D+", "setting": "spleen cell populations; [3]", "result": "0.9 ± 0.3* X10^6"},
      {"measurement": "Spleen T-Cells CD4+", "setting": "spleen cell populations; [3]", "result": "7.9 ± 1.9* X10^6"},
      {"measurement": "Spleen T-Cells CD8+", "setting": "spleen cell populations; [3]", "result": "4.9 ± 1.1* X10^6"},
      {"measurement": "Spleen T-Cells Tregs CD25+CD127^lo", "setting": "spleen cell populations; [3]", "result": "0.6 ± 0.2* X10^6"},
      {"measurement": "Spleen Weight", "setting": "spleen cell populations; [3]", "result": "92.5 ± 29.8", "unit": "mg"},
      {"measurement": "Spleen B-Cells B220+", "setting": "spleen cell populations; 3 days", "result": "24.2 ± 6.2* X10^6"},
      {"measurement": "Spleen B-Cells MZ-B-cells CD21^hiCD23^lo", "setting": "spleen cell populations; 3 days", "result": "0.2 ± 0.2* X10^6"},
      {"measurement": "Spleen Cell Count", "setting": "spleen cell populations; 3 days", "result": "36.2 ± 8.7* X10^6"},
      {"measurement": "Spleen Myeloid Gr-1+ CD11b+", "setting": "spleen cell populations; 3 days", "result": "0.25 ± 0.13* X10^6"},
      {"measurement": "Spleen NK-Cells NK1.1+ NKG2D+", "setting": "spleen cell populations; 3 days", "result": "0.10 ± 0.03* X10^6"},
      {"measurement": "Spleen T-Cells CD4+", "setting": "spleen cell populations; 3 days", "result": "4.9 ± 0.8* X10^6"},
      {"measurement": "Spleen T-Cells CD8+", "setting": "spleen cell populations; 3 days", "result": "4.7 ± 1.1* X10^6"},
      {"measurement": "Spleen T-Cells Tregs CD25+CD127^lo", "setting": "spleen cell populations; 3 days", "result": "0.3 ± 0.1* X10^6"},
      {"measurement": "Spleen Weight", "setting": "spleen cell populations; 3 days", "result": "50.5 ± 4.4* mg"},
      {"measurement": "Spleen B-Cells B220+", "setting": "spleen cell populations; 6 days", "result": "16.9 ± 8.7* X10^6"},
      {"measurement": "Spleen B-Cells MZ-B-cells CD21^hiCD23^lo", "setting": "spleen cell populations; 6 days", "result": "0.2 ± 0.2* X10^6"},
      {"measurement": "Spleen Cell Count", "setting": "spleen cell populations; 6 days", "result": "26.5 ± 3.1* X10^6"},
      {"measurement": "Spleen Myeloid Gr-1+ CD11b+", "setting": "spleen cell populations; 6 days", "result": "0.22 ± 0.09* X10^6"},
      {"measurement": "Spleen NK-Cells NK1.1+ NKG2D+", "setting": "spleen cell populations; 6 days", "result": "0.07 ± 0.04* X10^6"},
      {"measurement": "Spleen T-Cells CD4+", "setting": "spleen cell populations; 6 days", "result": "4.1 ± 1.7* X10^6"},
      {"measurement": "Spleen T-Cells CD8+", "setting": "spleen cell populations; 6 days", "result": "3.2 ± 1.5* X10^6"},
      {"measurement": "Spleen T-Cells Tregs CD25+CD127^lo", "setting": "spleen cell populations; 6 days", "result": "0.2 ± 0.1* X10^6"},
      {"measurement": "Spleen Weight", "setting": "spleen cell populations; 6 days", "result": "45.8 ± 7.6* mg"},
      {"measurement": "IC50", "setting": "TYK2 (JH1); HTRF, mean, n = 3, read-out: IC50, cell-free TYK2 (JH1)", "result": 0.18, "unit": "nM"},
      {"measurement": "Selectivity for JAK2 over Tyk2", "setting": "TYK2 (JH1); cell-free assays", "result": 2, "unit": "fold"},
      {"measurement": "Fold-Shift /JAK2, PRK2", "setting": "PRK2", "result": 13, "unit": "fold"}
    ]}
  ]
}
